Test results taken from the supplement of paper PMC11061612.

Tests used:
Lapatinib = compound: CS(=O)(=O)CCNCc1ccc(-c2ccc3ncnc(Nc4ccc(OCc5cccc(F)c5)c(Cl)c4)c3c2)o1 [Lapatinib]; settings: max 10 µM
Summary of the method: (§1)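 Cancer cell lines were plated in 1536-well plates in 7.5 μl of DMEM/F12 or RPMI with 10% FBS and kept 24 hours at 37°C and 5% CO2 before 72 hours of dosing, with final DMSO typically 0.2%. CellTiter-Glo 2.0 luminescence measured viability, scaled between blank-well and DMSO-well means. Dose responses were fitted to a two-parameter logistic curve with a non-linear mixed effects model. This fit gives the single-agent IC50.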

AZD5153 = compound: COc1nnc2ccc(N3CCC(c4ccc(OCCN5CCN(C)C(=O)[C@H]5C)cc4)CC3)nn12 [AZD5153]; settings: max 1 µM
Summary of the method: as §1

SG3199 = compound: CC1=CN2[C@@H](C1)C=NC3=CC(=C(C=C3C2=O)OC)OCCCCCOC4=C(C=C5C(=C4)N=C[C@@H]6CC(=CN6C5=O)C)OC [SG3199]; settings: max 0.001 µM
Summary of the method: as §1

Savolitinib = compound: C[C@@H](c1ccc2nccn2c1)n1nnc2ncc(-c3cnn(C)c3)nc21 [Savolitinib]; settings: max 1 µM
Summary of the method: as §1

AZD1775 = compound: C=CCn1c(=O)c2cnc(Nc3ccc(N4CCN(C)CC4)cc3)nc2n1-c1cccc(C(C)(C)O)n1 [AZD1775]; settings: max 3 µM
Summary of the method: as §1

Selumetinib = compound: Cn1cnc2c(F)c(Nc3ccc(Br)cc3Cl)c(C(=O)NOCCO)cc21 [Selumetinib]; settings: max 10 µM
Summary of the method: as §1

Dasatinib = compound: CC1=C(C(=CC=C1)Cl)NC(=O)C2=CN=C(S2)NC3=CC(=NC(=N3)C)N4CCN(CC4)CCO [Dasatinib]; settings: max 2 µM
Summary of the method: as §1

Gefitinib = compound: COc1cc2ncnc(Nc3ccc(F)c(Cl)c3)c2cc1OCCCN1CCOCC1 [Gefitinib]; settings: max 10 µM
Summary of the method: as §1

AZD1390 = compound: CC(C)n1c(=O)n(C)c2cnc3cc(F)c(-c4ccc(OCCCN5CCCCC5)nc4)cc3c21 [AZD1390]; settings: max 0.3 µM
Summary of the method: as §1

Olaparib = compound: O=C(c1cc(Cc2n[nH]c(=O)c3ccccc23)ccc1F)N1CCN(C(=O)C2CC2)CC1 [Olaparib]; settings: max 10 µM
Summary of the method: as §1

Venetoclax = compound: CC1(C)CCC(CN2CCN(c3ccc(C(=O)NS(=O)(=O)c4ccc(NCC5CCOCC5)c([N+](=O)[O-])c4)c(Oc4cnc5[nH]ccc5c4)c3)CC2)=C(c2ccc(Cl)cc2)C1 [Venetoclax]; settings: max 1 µM
Summary of the method: as §1

AZD5991 = compound: Cc1c2c(nn1C)CSCc1cc(n(C)n1)CSc1cc(c3ccccc3c1)OCCCc1c(C(=O)O)n(C)c3c-2c(Cl)ccc13 [AZD5991]; settings: max 1 µM
Summary of the method: as §1

SN-38 = compound: CCc1c2c(nc3ccc(O)cc13)-c1cc3c(c(=O)n1C2)COC(=O)[C@]3(O)CC [SN-38]; settings: max 0.3 µM
Summary of the method: as §1

AZD4320 = compound: CN(CC[C@H](CSC1=CC=CC=C1)NC2=C(C=C(C=C2)S(=O)(=O)NC(=O)C3=CC=C(C=C3)N4CCC(CC4)[C@H](C5=CC=CC=C5C6=CC=C(C=C6)Cl)O)S(=O)(=O)C(F)(F)F)CCO [AZD4320]; settings: max 1 µM
Summary of the method: as §1

Crizotinib = compound: C[C@@H](Oc1cc(-c2cnn(C3CCNCC3)c2)cnc1N)c1c(Cl)ccc(F)c1Cl [Crizotinib]; settings: max 10 µM
Summary of the method: as §1

Capivasertib = compound: C1CN(CCC1(C(=O)N[C@@H](CCO)C2=CC=C(C=C2)Cl)N)C3=NC=NC4=C3C=CN4 [Capivasertib]; settings: max 10 µM
Summary of the method: as §1

AZD0156 = compound: CN(C)CCCOc1ccc(-c2ccc3ncc4c(c3c2)n(C2CCOCC2)c(=O)n4C)cn1 [AZD0156]; settings: max 3 µM
Summary of the method: as §1

Trametinib = compound: CC(=O)Nc1cccc(-n2c(=O)n(C3CC3)c(=O)c3c(Nc4ccc(I)cc4F)n(C)c(=O)c(C)c32)c1 [Trametinib]; settings: max 1 µM
Summary of the method: as §1

AZD8186 = compound: C[C@@H](Nc1cc(F)cc(F)c1)c1cc(C(=O)N(C)C)cc2c(=O)cc(N3CCOCC3)oc12 [AZD8186]; settings: max 3 µM
Summary of the method: as §1

Prexasertib = compound: COc1cccc(OCCCN)c1-c1cc(Nc2cnc(C#N)cn2)n[nH]1 [Prexasertib]; settings: max 1 µM
Summary of the method: as §1

AZD2811 = compound: CCN(CCO)CCCOc1ccc2c(Nc3cc(CC(=O)Nc4cccc(F)c4)[nH]n3)ncnc2c1 [AZD2811]; settings: max 1 µM
Summary of the method: as §1

Palbociclib = compound: CC(=O)c1c(C)c2cnc(Nc3ccc(N4CCNCC4)cn3)nc2n(C2CCCC2)c1=O [Palbociclib]; settings: max 10 µM
Summary of the method: as §1

AZD7648 = compound: Cc1cc2ncnn2cc1Nc1ncc2c(n1)n(C1CCOCC1)c(=O)n2C [AZD7648]; settings: max 10 µM
Summary of the method: as §1

Alisertib = compound: COc1cc(Nc2ncc3c(n2)-c2ccc(Cl)cc2C(c2c(F)cccc2OC)=NC3)ccc1C(=O)O [Alisertib]; settings: max 10 µM
Summary of the method: as §1

AZD6738 = compound: C[C@@H]1COCCN1C2=NC(=NC(=C2)C3(CC3)[S@](=N)(=O)C)C4=C5C=CNC5=NC=C4 [AZD6738]; settings: max 10 µM
Summary of the method: as §1

Taselisib = compound: Cc1nc(-c2cn3c(n2)-c2ccc(-c4cnn(C(C)(C)C(N)=O)c4)cc2OCC3)n(C(C)C)n1 [Taselisib]; settings: max 10 µM
Summary of the method: as §1

Doxorubicin = compound: COc1cccc2c1C(=O)c1c(O)c3c(c(O)c1C2=O)C[C@@](O)(C(=O)CO)C[C@@H]3O[C@H]1C[C@H](N)[C@H](O)[C@H](C)O1 [Doxorubicin]; settings: max 1 µM
Summary of the method: as §1

Cell Line | IC50, cell viability 72 h (Lapatinib) | IC50, cell viability 72 h (AZD5153) | IC50, cell viability 72 h (SG3199) | IC50, cell viability 72 h (Savolitinib) | IC50, cell viability 72 h (AZD1775) | IC50, cell viability 72 h (Selumetinib) | IC50, cell viability 72 h (Dasatinib) | IC50, cell viability 72 h (Gefitinib) | IC50, cell viability 72 h (AZD1390) | IC50, cell viability 72 h (Olaparib) | IC50, cell viability 72 h (Venetoclax) | IC50, cell viability 72 h (AZD5991) | IC50, cell viability 72 h (SN-38) | IC50, cell viability 72 h (AZD4320) | IC50, cell viability 72 h (Crizotinib) | IC50, cell viability 72 h (Capivasertib) | IC50, cell viability 72 h (AZD0156) | IC50, cell viability 72 h (Trametinib) | IC50, cell viability 72 h (AZD8186) | IC50, cell viability 72 h (Prexasertib) | IC50, cell viability 72 h (AZD2811) | IC50, cell viability 72 h (Palbociclib) | IC50, cell viability 72 h (AZD7648) | IC50, cell viability 72 h (Alisertib) | IC50, cell viability 72 h (AZD6738) | IC50, cell viability 72 h (Taselisib) | IC50, cell viability 72 h (Doxorubicin)
NCI-H1693 (Lung Adenocarcinoma) | > 10000 nM | > 1000 nM | > 1 nM | > 1000 nM | > 3000 nM | > 10000 nM | > 2000 nM | > 10000 nM | > 300 nM | > 10000 nM | > 1000 nM | > 1000 nM | 87.2 nM | > 1000 nM | > 10000 nM | > 10000 nM | > 3000 nM | > 1000 nM | > 3000 nM | > 1000 nM | > 1000 nM | > 10000 nM | > 10000 nM | > 10000 nM | > 10000 nM | > 10000 nM | > 1000 nM
NCI-H1650 (Lung Adenocarcinoma) | > 10000 nM | > 1000 nM | > 1 nM | > 1000 nM | > 3000 nM | > 10000 nM | > 2000 nM | > 10000 nM | > 300 nM | > 10000 nM | > 1000 nM | > 1000 nM | > 300 nM | > 1000 nM | > 10000 nM | > 10000 nM | > 3000 nM | > 1000 nM | > 3000 nM | 472 nM | > 1000 nM | > 10000 nM | > 10000 nM | > 10000 nM | > 10000 nM | > 10000 nM | > 1000 nM
SK-MG-1 (Low Grade Glioma) | > 10000 nM | > 1000 nM | > 1 nM | > 1000 nM | > 3000 nM | > 10000 nM | 886 nM | > 10000 nM | > 300 nM | > 10000 nM | > 1000 nM | > 1000 nM | 60 nM | > 1000 nM | > 10000 nM | > 10000 nM | > 3000 nM | > 1000 nM | 2730 nM | 82.8 nM | > 1000 nM | > 10000 nM | > 10000 nM | > 10000 nM | > 10000 nM | 1620 nM | > 1000 nM
SISO (Cervical Carcinoma) | > 10000 nM | > 1000 nM | > 1 nM | > 1000 nM | 1530 nM | > 10000 nM | > 2000 nM | > 10000 nM | > 300 nM | > 10000 nM | > 1000 nM | > 1000 nM | 23.6 nM | > 1000 nM | > 10000 nM | > 10000 nM | > 3000 nM | > 1000 nM | > 3000 nM | 237 nM | > 1000 nM | > 10000 nM | > 10000 nM | 6210 nM | > 10000 nM | > 10000 nM | 290 nM
OS-RC-2 (Kidney Carcinoma) | > 10000 nM | > 1000 nM | > 1 nM | > 1000 nM | > 3000 nM | > 10000 nM | > 2000 nM | > 10000 nM | > 300 nM | > 10000 nM | > 1000 nM | > 1000 nM | > 300 nM | > 1000 nM | > 10000 nM | > 10000 nM | > 3000 nM | > 1000 nM | 1910 nM | 433 nM | > 1000 nM | > 10000 nM | > 10000 nM | > 10000 nM | > 10000 nM | > 10000 nM | > 1000 nM
JSC-1 (B-Cell Non-Hodgkin's Lymphoma) | > 10000 nM | 66.7 nM | > 1 nM | > 1000 nM | 328 nM | 4680 nM | > 2000 nM | > 10000 nM | > 300 nM | > 10000 nM | > 1000 nM | 33.4 nM | 2.11 nM | > 1000 nM | 6190 nM | 7450 nM | > 3000 nM | 260 nM | > 3000 nM | 5.24 nM | > 1000 nM | 5840 nM | > 10000 nM | 7110 nM | 1860 nM | > 10000 nM | 120 nM
NCI-H2141 (Small Cell Lung Carcinoma) | > 10000 nM | > 1000 nM | > 1 nM | > 1000 nM | 2200 nM | > 10000 nM | > 2000 nM | > 10000 nM | > 300 nM | > 10000 nM | > 1000 nM | > 1000 nM | > 300 nM | 307 nM | > 10000 nM | > 10000 nM | > 3000 nM | > 1000 nM | > 3000 nM | 458 nM | > 1000 nM | > 10000 nM | > 10000 nM | > 10000 nM | > 10000 nM | > 10000 nM | > 1000 nM
CAS-1 (Glioblastoma) | > 10000 nM | 345 nM | > 1 nM | > 1000 nM | 1600 nM | > 10000 nM | 931 nM | > 10000 nM | > 300 nM | > 10000 nM | > 1000 nM | > 1000 nM | 202 nM | > 1000 nM | > 10000 nM | 7050 nM | > 3000 nM | 465 nM | > 3000 nM | 158 nM | > 1000 nM | > 10000 nM | > 10000 nM | 4130 nM | > 10000 nM | > 10000 nM | > 1000 nM
